# Reference: patent publication US9783505B2, “Substituted diaminopyrimidyl compounds, compositions thereof, and methods of treatment therewith” (Signal Pharmaceuticals, LLC, priority 2013, dated 2017)
# pIC50: −log10 of the molar value.
# Target: T1, His-PKC-theta (Homo sapiens, UniProt Q04759)
# T1 construct: His; purchased Invitrogen
# Test: PKC-theta Assay (384-well time resolved fluorescence, IMAP TR-FRET)
# Assay type: biochemical
# Conditions: Table 2; read-out: Act. Level (IC50 in the PKC-theta Assay)
# Outline: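 Fam-labeled S6-derived peptide (200 nM) and 10 μM ATP were reacted with 142 pM enzyme for 2 h at room temperature in HEPES pH 7.6 buffer with MgCl2, DTT, Triton X-100, BSA and EDTA. The reaction was stopped with IMAP progressive binding reagent plus Tb donor, incubated overnight, then TR-FRET read.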
# T1 sequence (Q04759 whole entry): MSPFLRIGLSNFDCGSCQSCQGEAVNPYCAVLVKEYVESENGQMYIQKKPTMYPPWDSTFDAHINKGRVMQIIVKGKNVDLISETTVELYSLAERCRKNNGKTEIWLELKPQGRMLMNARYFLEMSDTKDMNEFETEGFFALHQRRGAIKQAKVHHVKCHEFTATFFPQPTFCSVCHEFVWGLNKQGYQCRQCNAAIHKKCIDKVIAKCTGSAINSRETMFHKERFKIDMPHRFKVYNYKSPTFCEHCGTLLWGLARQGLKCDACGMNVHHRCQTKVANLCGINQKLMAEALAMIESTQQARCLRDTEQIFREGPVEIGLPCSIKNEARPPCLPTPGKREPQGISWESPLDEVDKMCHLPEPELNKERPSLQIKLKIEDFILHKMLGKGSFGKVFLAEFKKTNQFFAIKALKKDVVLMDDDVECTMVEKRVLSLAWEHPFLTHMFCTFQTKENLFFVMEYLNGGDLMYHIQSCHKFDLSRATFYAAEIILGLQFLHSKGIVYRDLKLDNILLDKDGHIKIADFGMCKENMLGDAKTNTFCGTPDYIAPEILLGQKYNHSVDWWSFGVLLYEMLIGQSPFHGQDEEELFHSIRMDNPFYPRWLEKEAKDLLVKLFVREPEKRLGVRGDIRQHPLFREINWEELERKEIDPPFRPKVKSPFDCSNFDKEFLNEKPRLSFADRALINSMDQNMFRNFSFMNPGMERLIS
row,Compound,pIC50
1,CC1(C)[C@H](N)C[C@@H]1Nc1nc(NCCc2cccc(Cl)c2)ncc1C#N [Cmpd 159],> 7.00
2,CC1(C)[C@@H](N)C[C@H]1Nc1nc(NCCc2cccc(Cl)c2)ncc1C#N [Cmpd 160],5.70 to 6.10
3,CC1(C)C[C@H](Nc2nc(NCCc3ccc(C#N)cc3)ncc2C(F)(F)F)CC[C@@H]1O [Cmpd 161],6.10 to 7.00
4,CC1(C)[C@@H](Nc2nc(NCCc3cccc(Cl)c3)ncc2C#N)C[C@@H]1C(N)=O [Cmpd 162],6.10 to 7.00
5,CC1(C)[C@H](Nc2nc(NCCc3cccc(Cl)c3)ncc2C#N)C[C@H]1C(N)=O [Cmpd 163],5.00 to 5.70
6,CC1(C)[C@@H](Nc2nc(NCCc3cccc(Cl)c3)ncc2C#N)C[C@H]1C(N)=O [Cmpd 164],6.10 to 7.00
7,CC1(C)[C@@H](C(N)=O)C[C@H]1Nc1nc(NCCc2cccc(Cl)c2)ncc1C#N [Cmpd 165],> 7.00
8,CC1(C)C[C@H](Nc2nc(NCCc3cccc(C#N)c3)ncc2C#N)CC[C@@H]1O [Cmpd 166],5.70 to 6.10
9,Cc1nnnn1-c1ccc(CCNc2ncc(C#N)c(N[C@@H]3CC[C@H](O)C(C)(C)C3)n2)cc1 [Cmpd 167],6.10 to 7.00
10,Cc1nnnn1-c1ccccc1CCNc1ncc(C#N)c(N[C@@H]2CC[C@H](O)C(C)(C)C2)n1 [Cmpd 168],5.00 to 5.70
11,Cc1nnnn1-c1cccc(CCNc2ncc(C#N)c(N[C@@H]3CC[C@H](O)C(C)(C)C3)n2)c1 [Cmpd 169],6.10 to 7.00
12,CC1(C)C[C@H](Nc2nc(NCCc3ccc(OCC(F)F)cc3)ncc2C#N)CC[C@@H]1O [Cmpd 170],> 7.00
13,CC1(C)C[C@H](Nc2nc(NCCc3ccc(OCCF)cc3)ncc2C#N)CC[C@@H]1O [Cmpd 171],> 7.00
14,CC1(C)C[C@H](Nc2nc(NCCc3cccc(S(N)(=O)=O)c3)ncc2C#N)CC[C@@H]1O [Cmpd 172],6.10 to 7.00
15,CC1(C)C[C@H](Nc2nc(NCCc3cccc(S(C)(=O)=O)c3)ncc2C#N)CC[C@@H]1O [Cmpd 173],6.10 to 7.00
16,CC1(C)C[C@H](Nc2nc(NCCc3ccc(S(=O)(=O)N4CCCC4)cc3)ncc2C#N)CC[C@@H]1O [Cmpd 174],6.10 to 7.00

# Same assay, conditions: read-out: Act. Level (IC50 in the PKC-theta Assay)
row,Compound,pIC50
1,CC1(C)C[C@H](Nc2nc(NCc3cncnc3C(F)(F)F)ncc2C#N)CC[C@H]1O [Cmpd 159],6.10 to 7.00
2,CC(F)(F)COc1ncncc1CNc1ncc(C#N)c(N[C@H]2CC[C@@](C)(C(N)=O)CC2)n1 [Cmpd 160],> 7.00
3,N#Cc1cnc(NCCC2(O)C(=O)Nc3ccccc32)nc1N[C@H]1CC[C@@H](O)CC1 (stereo partly shown) [Cmpd 162],5.00 to 5.70
4,N#Cc1ccc2[nH]cc(CCNc3ncc(C#N)c(N[C@H]4CC[C@@H](O)CC4)n3)c2c1 [Cmpd 163],5.00 to 5.70
5,COc1ccc2c(CCNc3ncc(C#N)c(N[C@H]4CC[C@@H](O)CC4)n3)c[nH]c2c1 [Cmpd 164],5.70 to 6.10
6,N#Cc1cnc(NCCc2c[nH]c3cc(F)ccc23)nc1N[C@H]1CC[C@@H](O)CC1 [Cmpd 165],5.70 to 6.10
7,COc1cccc2c(CCNc3ncc(C#N)c(NC4CCC(O)CC4)n3)c[nH]c12 (stereo not shown) [Cmpd 166],5.70 to 6.10
8,Cc1[nH]c2c(F)cc(F)cc2c1CCNc1ncc(C#N)c(N[C@@H]2CC[C@H](O)C(C)(C)C2)n1 [Cmpd 167],6.10 to 7.00
9,Cc1[nH]c2ccccc2c1CCNc1ncc(C#N)c(N[C@@H]2CC[C@H](O)C(C)(C)C2)n1 [Cmpd 168],6.10 to 7.00
10,CC1(C)C[C@H](Nc2nc(NCCc3c[nH]c4ccc(Cl)cc34)ncc2C#N)CC[C@@H]1O [Cmpd 169],6.10 to 7.00
11,CC1(C)C[C@H](Nc2nc(NCCc3c[nH]c4cc(OC(F)(F)F)ccc34)ncc2C#N)CC[C@@H]1O [Cmpd 170],6.10 to 7.00
12,CC1(C)C[C@H](Nc2nc(NCCc3c[nH]c4ccc(OC(F)(F)F)cc34)ncc2C#N)CC[C@@H]1O [Cmpd 171],5.00 to 5.70
13,Cc1cccc2c(CCNc3ncc(C#N)c(N[C@@H]4CC[C@H](O)C(C)(C)C4)n3)c[nH]c12 [Cmpd 172],6.10 to 7.00
14,CC1(C)C[C@H](Nc2nc(NCCc3c[nH]c4cc(Cl)ccc34)ncc2C#N)CC[C@@H]1O [Cmpd 173],6.10 to 7.00
15,Cc1ccc2c(CCNc3ncc(C#N)c(N[C@@H]4CC[C@H](O)C(C)(C)C4)n3)c[nH]c2c1 [Cmpd 174],5.70 to 6.10
